The target of the experiment is Dihydroorotate dehydrogenase (quinone), mitochondrial (Homo sapiens, UniProt Q02127). Kind of experiment: Inhibitory activity against human DHODH.

Structures are written as SMILES. pIC50: −log10 of the molar value.

Chain of Dihydroorotate dehydrogenase (quinone), mitochondrial (Q02127 whole entry): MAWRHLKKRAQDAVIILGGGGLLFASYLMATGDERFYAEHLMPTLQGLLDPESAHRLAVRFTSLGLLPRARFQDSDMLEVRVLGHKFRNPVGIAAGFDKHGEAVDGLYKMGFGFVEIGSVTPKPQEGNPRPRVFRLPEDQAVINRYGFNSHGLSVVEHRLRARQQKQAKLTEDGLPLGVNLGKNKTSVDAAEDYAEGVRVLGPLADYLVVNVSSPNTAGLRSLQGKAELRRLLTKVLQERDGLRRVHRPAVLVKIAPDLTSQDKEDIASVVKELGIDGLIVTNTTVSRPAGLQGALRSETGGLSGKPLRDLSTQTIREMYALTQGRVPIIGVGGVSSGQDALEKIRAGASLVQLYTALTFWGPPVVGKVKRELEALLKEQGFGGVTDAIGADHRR

By pIC50 is commonly meant the IC50 on a negative log10 scale, so that one unit is a factor of ten. Low readings indicate a large IC50, high ones a small IC50. `O=C(Nc1c(F)cc(-c2cccc(OC(F)(F)F)c2)cc1F)c1ccsc1C(=O)O` had a pIC50 of 8.70.

Values taken from ChEMBL document CHEMBL1149442, “Dual binding mode of a novel series of DHODH inhibitors” (J Med Chem, 2006).
